The values that follow come from patent US20210290576A1, “STRUCTURALLY MODIFIED FATTY ACIDS FOR IMPROVING GLYCEMIC CONTROL AND TREATING INFLAMMATORY BOWEL DISEASE” (NORTHSEA THERAPEUTICS B.V., priority 2018, published 2021).

SMILES strings stand for the structures. Entries after “also recorded” stand apart in the source; their conditions may differ.

The subject of one data set is DSS-induced colitis mice. In words: DSS-induced colitis mouse model (body weight, colon length, survival, histology). The following applies: for colon length compared to control: 7 days DSS. In kind it is in vivo, C56BL/6J mouse. From the text:
Evaluation of Effects of Compound B on Intestinal Inflammation in DSS-Induced Colitis Mice
The dextran sodium sulphate-induced (DSS)-induced colitis model is well known in the art as a reproducible chemical induction of intestinal inflammation animal model. See, e.g., Eichele et al., World J Gastroenterol, 2017, 23(33):6016-6029; Randhawa et al., Korean J. Physiol. Pharmacol. (2014) 18:279-288; Jurjus et al., J. Pharmacol. Toxicol., Methods, 2004, 50:81-92; Gaudio et al., Dig. Dis. Sci., 1999, 44:1458-1475. The DSS-induced colitis model morphologically and symptomatically resembles epithelial damage seen in human IBD, and thus has become the most extensively employed experimental model of intestinal inflammation. Okayasu et al., Gastroenterology, 1990, 98:694-702; Kawada et al., World J. Gastroenterol. 2007, 13:5581-5593. The DSS-induced colitis model is most similar to ulcerative colitis in humans, but also has many similarities to Crohn's disease.
DSS is a water soluble, negatively charged sulfated polysaccharide with a highly variable molecular weight ranging from 5 to 1400 kDa. Murine colitis results from administration of about 1% to 3% DSS to the drinking water of a mouse strain susceptible to DSS-induced colitis. Without being bound by theory, the sulfated polysaccharide may not directly induce intestinal inflammation, but may instead act as a direct chemical toxin to colonic epithelium resulting in epithelial cell injury. It is thought that DSS disrupts the intestinal epithelial monolayer lining, leading to the entry of luminal bacteria and associated antigens into the mucosa and allowing the dissemination of proinflammatory intestinal contents into underlying tissue. […] Perse et al., J. Biomed. Biotechnol., 2012:718617.
(§1) The C56BL/6J mouse is a strain susceptible to DSS-induced colitis. To evaluate the efficacy and dosage of Compound B in treatment of DSS-induced colitis, inflammation was induced in 30 9-week old C56BL/6J mice by adding 1.5% DSS to the drinking water for 7 days. The mice were fed a standard chow diet that consisted of 30 weight percent wheat. The mice were divided into three groups of 10, and for each day of DSS administration each group was administered via oral gavage either (1) 100 μL corn oil per day (Control), (2) 126 mg/kg Compound B (dissolved in 100 μL corn oil) per day (“Compound B—Low” or “Compound B—L”), or (3) 252 mg/kg Compound B (dissolved in 100 μL corn oil) per day (“Compound B—High” or “Compound B—H”). Following the 7-day period of DSS induction, mice were sacrificed and their intestinal tissue was used for histopathological and gene expression analysis.
To assess the efficacy of Compound B in the treatment of DSS-induced colitis in mice, the body weight of mice was monitored. Weight loss is an indicator of colitis severity.
To assess the efficacy of Compound B in the treatment of DSS-induced colitis in mice, colon length of test mice was measured. Colon length correlates inversely with inflammation.
50% (n=5) of untreated mice in the control group were alive 7 days after colitis was induced, compared to 90% (n=9) of mice treated with the low dose of Compound B, and 100% (n=10) of mice treated with the high dose of compound B. Deaths in the control group were due to sepsis and severe colon inflammation. Thus, Compound B has a statistically significant effect on survival rate in colitis mice.
Histopathological analysis was performed on sections of formalin-fixed paraffin embedded tissue after hematoxylin and eosin (H&E) staining. Colonic samples were analyzed by histopathology for assignment of scores for colitis activity as described in Neurath et al., J. Exp. Med., 2002, 195:1129-1143. Briefly, the degrees of inflammation and epithelial and mucosal injury on microscopic cross-sections of the colon were graded semi-quantitatively from 0 to 4. […]

Another data set has as its system atherogenic lipids. The following applies: APOE*3.CETP mice; cited from earlier work.
Data set [1] can be described thus: Excretion balance: recovery of radioactivity in excreta. In kind it is in vivo, male albino rats. Particulars: single oral 50 mg/kg [14C]-Compound B. As for the experimental part: Biological Example 8. Recovery of Radioactivity in the Excreta of Male Albino Rats after a Single Oral Administration of [14C]-Compound B at a Nominal Dose Level of 50 mg/kg Body Weight
To assess Compound B clearance via urine versus feces, the excretion pattern of a single oral dose of [14C]-Compound B was determined in male albino rats. […] The total excretion of radioactivity following oral administration was >95% within the first 48 hours. Excretion via the urine accounted for 12% of the administered dose. […]

For data set [2], the system named is IL6, IL1b, S100A8, TNFα, Reg3g, IL17a mRNA. Put plainly: Colonic mRNA levels of proinflammatory cytokines and biomarkers in DSS-induced colitis mice (real-time PCR). The class given is in vivo, C56BL/6J mouse. The following applies: 126 and 252 mg/kg per day; normalized to HPRT; vs untreated mice. The procedure:
as §1
To evaluate the effect of treatment with Compound B on the levels of proinflammatory cytokines and biomarkers, total RNA was extracted from small and large intestinal tissue samples (>100 mg). cDNA was synthesized by reverse transcription and analyzed by real-time PCR. Results were normalized to the level of the housekeeping gene hypoxanthine guanine phosphoribosyltransferase (HPRT). The relative mRNA expression of the tested gene relative to HPRT expression was calculated using the 2^−ΔΔCt method as described in Pickert et al., J. Exp. Med., 2009, 206:1465-1472. Interleukin 6 (IL6), IL1b, calgranulin-A (S100A8), and tumor necrosis factor α (TNFα) have been implicated as mediators of IBD, including both ulcerative colitis and Crohn's disease. IL6, IL1b, and calgranulin-A are prominently expressed in inflammatory macrophages. IL22-dependent regenerating islet-derived 3 gamma (Reg3g) is induced in response to inflammation in epithelial cells. IL17 is secreted by Th17 T helper cells and innate lymphoid cells type 3 (ILC3).

Regarding `CC/C=C\C/C=C\C/C=C\C/C=C\C/C=C\CCCCSC(CC)(CC)C(=O)O` [Compound B, 2-ethyl-2-((5Z,8Z,11 Z,14Z,17Z)-icosa-5,8,11,14,17-pentaenylthio)butanoic acid], in the data set on DSS-induced colitis mice (126 mg/kg per day (Compound B—Low)), the “difference in weight loss, control vs. treated” value is given as “statistically significant after 7 days”. The “colon length compared to control” value in the data set with DSS-induced colitis mice (126 mg/kg per day (low dose)) is listed as “significant increase in colon length”. Also, the “difference in weight loss, control vs. treated” value in the data set on DSS-induced colitis mice (252 mg/kg per day (Compound B—High)) is recorded as “statistically significant after 6 days”. Also, in the data set with DSS-induced colitis mice (252 mg/kg per day (high dose)), the “histological cross-sections of colon: morphology” value is reported as “almost complete rescue”; the “histological scores of colonic samples versus untreated mice” value is recorded as “significantly lower”; the “inflammation and epithelial and mucosal injury versus untreated mice” value is given as “lower”; the “colon length compared to control” value was “significant increase in colon length”. In addition, in the data set with DSS-induced colitis mice (126 and 252 mg/kg per day), the “histological cross-sections of colon: inflammatory infiltrates, edema, villus architecture” value was “dose-dependent attenuation of inflammatory infiltrates and edema”. For the same compound, the “weight loss compared to the control group” value in the data set with DSS-induced colitis mice (126 and 252 mg/kg per day oral gavage, 1.5% DSS for 7 days) was “dose-dependent reduction in weight loss”. In addition, the atherogenic lipids result with atherogenic lipids is listed as “significantly reduce atherogenic lipids”. In addition, in data set [1] (0-168 h, n = 3), the “% Recovery of Administered Dose, Mean total radioactivity” value amounted to 101%. Besides, in data set [1], the “total excretion of radioactivity within the first 48 hours” value is > 95%. Besides, in data set [2], the “relative colonic mRNA level of IL1b” value is “reduced colonic expression; also recorded: dose-dependent decrease”, the “relative colonic mRNA level of IL6” value was “reduced colonic expression; also recorded: dose-dependent decrease”, the “relative colonic mRNA level of IL17a” value was “lack of change” and the “relative colonic mRNA level of Reg3g” value is on record as “reduced colonic expression; also recorded: dose-dependent decrease”. Further, in data set [2], the “relative colonic mRNA level of S100A8” value is recorded as “reduced colonic expression; also recorded: dose-dependent decrease” and the “relative colonic mRNA level of TNFα” value is given as “reduced colonic expression; also recorded: dose-dependent decrease”.
